Residues, ends and D or L forms follow the SMILES beside them.
System: Swine aorta endothelial cells
Test: Measurement of activity inhibiting swine vascular endothelial cell migration
Type: cell-based
Settings: test compound at 10 µmol/L; 6 hours pre-culture, cells scraped off with razor blade, then 24 hours culture; 0.1% bovine serum albumin-containing Dulbecco's modified Eagle medium; value ± SD
Text: Measurement of activity inhibiting swine vascular endothelial cell migration: Swine aorta endothelial cells (5th to 7th generations) were suspended in the 10% fetus calf serum-containing Dulbecco's modified Eagle medium and inoculated at a cell density of 32,000 cells/cm^2 in a 6-well plate, for culturing until the cells formed a single layer over the whole bottom of the culture dish. Subsequently, the culture broth was exchanged to the 0.1% bovine serum albumin-containing Dulbecco's modified Eagle medium containing a test compound at a concentration of 10 µmol/L, followed by culturing for 6 hours. Then, a part of the cells on the bottom of the culture dish was scraped off using a razor blade. Subsequently, the culture broth was exchanged to the 0.1% bovine serum albumin-containing Dulbecco's modified Eagle medium containing a test compound in a concentration of 10 µmol/L, followed by culturing for 24 hours. After immobilizing the cells, the number of the cells which had migrated on the bottom portion of the culture dish, where a part of the cells had been scraped off, was counted. The inhibition ratio of cell migration was calculated by the following equation. Inhibition ratio of cell migration (%) = (1 - the number of cells which had migrated in the presence of the test compound/the number of cells which had migrated in the absence of the test compound) × 100 [formula]

Row | Structure (SMILES) | Inhibition ratio of cell migration (%) ± SD [%]
1 | CC[C@H](C)[C@H](NC(=O)[C@H](CO)NC(=O)[C@H](C)NC(=O)[C@@H]1CCCN1C(=O)[C@H](CO)NC(=O)[C@H](Cc1c[nH]c2ccccc12)NC(=O)[C@@H](NC(=O)[C@@H](NC(=O)[C@H](Cc1c[nH]c2ccccc12)NC(=O)[C@H](CCC(=O)O)NC(=O)[C@H](CO)NC(=O)[C@@H](N)CCSC)[C@@H](C)CC)[C@@H](C)O)C(=O)N[C@@H](CO)C(=O)N[C@@H](C)C(=O)NCC(N)=O [Compound 1, H-Met-Ser-Glu-Trp-Ile-Thr-Trp-Ser-Pro-Ala-Ser-Ile-Ser-Ala-Gly-NH2] (H-MSEWITWSPASISAG-NH2) | 24.5±4.9
2 | CC(C)C[C@H](NC(=O)[C@H](CO)NC(=O)[C@@H](N)CC(C)C)C(=O)N[C@@H](Cc1c[nH]c2ccccc12)C(=O)N[C@@H](CO)C(=O)N[C@@H](CCC(=O)O)C(=O)N[C@@H](Cc1c[nH]c2ccccc12)C(=O)N[C@@H](CO)C(=O)N[C@@H](CC(=O)O)C(=O)N[C@@H](C)C(=O)N[C@@H](CO)C(=O)N[C@H](C(=O)N[C@H](C(=O)N[C@@H](C)C(=O)NCC(N)=O)[C@@H](C)O)C(C)C [Compound 2, H-Leu-Ser-Leu-Trp-Ser-Glu-Trp-Ser-Asp-Ala-Ser-Val-Thr-Ala-Gly-NH2] (H-LSLWSEWSDASVTAG-NH2) | 41.5±2.1
3 | C[C@H](NC(=O)[C@H](C)NC(=O)[C@H](CO)NC(=O)[C@H](Cc1c[nH]c2ccccc12)NC(=O)[C@@H]1CCCN1C(=O)[C@H](CO)NC(=O)[C@H](Cc1c[nH]c2ccccc12)NC(=O)[C@H](CC(N)=O)NC(=O)[C@H](CO)NC(=O)[C@@H](N)Cc1ccc(O)cc1)C(=O)N[C@@H](CO)C(=O)N[C@@H](CO)C(=O)N[C@@H](CO)C(=O)N[C@H](C(=O)N[C@@H](C)C(=O)N[C@@H](CC(=O)O)C(N)=O)[C@@H](C)O [Compound 3, H-Tyr-Ser-Asn-Trp-Ser-Pro-Trp-Ser-Ala-Ala-Ser-Ser-Ser-Thr-Ala-Asp-NH2] (H-YSNWSPWSAASSSTAD-NH2) | 12.3±10.0
4 | CSCC[C@H](N)C(=O)N[C@H](C(=O)N[C@@H](CCC(=O)O)C(=O)N[C@@H](Cc1c[nH]c2ccccc12)C(=O)NCC(=O)N[C@@H](CCC(=O)O)C(=O)N[C@@H](Cc1c[nH]c2ccccc12)C(=O)N[C@@H](CC(=O)O)C(=O)N[C@@H](CCC(=O)O)C(=O)N[C@@H](C)C(=O)N[C@@H](CO)C(=O)N[C@@H](C)C(=O)N[C@H](C(=O)N[C@@H](C)C(=O)NCC(N)=O)[C@@H](C)O)[C@@H](C)O [Compound 4, H-Met-Thr-Glu-Trp-Gly-Glu-Trp-Asp-Glu-Ala-Ser-Ala-Thr-Ala-Gly-NH2] (H-MTEWGEWDEASATAG-NH2) | 7.4±13.2
5 | CC(C)C[C@H](N)C(=O)N[C@H](C(=O)N[C@@H](CCC(=O)O)C(=O)N[C@@H](Cc1c[nH]c2ccccc12)C(=O)N[C@@H](CO)C(=O)N[C@@H](CCC(N)=O)C(=O)N[C@@H](Cc1c[nH]c2ccccc12)C(=O)N[C@@H](CO)C(=O)N[C@@H](CCC(=O)O)C(=O)N[C@@H](C)C(=O)N[C@@H](CC(N)=O)C(=O)N[C@@H](CCCCN)C(=O)N[C@@H](CO)C(=O)N[C@@H](C)C(=O)NCC(N)=O)[C@@H](C)O [Compound 5, H-Leu-Thr-Glu-Trp-Ser-Gln-Trp-Ser-Glu-Ala-Asn-Lys-Ser-Ala-Gly-NH2] (H-LTEWSQWSEANKSAG-NH2) | 10.8±6.0
6 | CSCC[C@H](N)C(=O)N[C@@H](CCCNC(=N)N)C(=O)N1CCC[C@H]1C(=O)N[C@@H](Cc1c[nH]c2ccccc12)C(=O)N[C@H](C(=O)N[C@@H](C)C(=O)N[C@@H](Cc1c[nH]c2ccccc12)C(=O)N[C@@H](CO)C(=O)N[C@@H](CCC(=O)O)C(=O)N[C@@H](C)C(=O)N[C@H](C(=O)N[C@@H](CCCCN)C(=O)N[C@@H](CC(C)C)C(=O)N[C@@H](C)C(=O)NCC(N)=O)[C@@H](C)O)[C@@H](C)O [Compound 6, H-Met-Arg-Pro-Trp-Thr-Ala-Trp-Ser-Glu-Ala-Thr-Lys-Leu-Ala-Gly-NH2] (H-MRPWTAWSEATKLAG-NH2) | 5.7±8.0
7 | CSCC[C@H](NC(=O)[C@H](CCCNC(=N)N)NC(=O)[C@H](CCCCN)NC(=O)CNC(=O)[C@H](CCCCN)NC(=O)[C@@H](N)CC(=O)O)C(=O)N[C@@H](CCCNC(=N)N)C(=O)N[C@@H](CCC(N)=O)C(=O)N[C@@H](CCCNC(=N)N)C(=O)N[C@@H](CCSC)C(=O)N[C@@H](CC(C)C)C(=O)N[C@@H](CCCCN)C(=O)N[C@@H](C)C(=O)N[C@@H](CCC(N)=O)C(=O)N[C@@H](CC(C)C)C(N)=O [Compound 7, H-Asp-Lys-Gly-Lys-Arg-Met-Arg-Gln-Arg-Met-Leu-Lys-Ala-Gln-Leu-NH2] (H-DKGKRMRQRMLKAQL-NH2) | 9.3±1.6
8 | CC[C@H](C)[C@H](NC(=O)[C@H](CCSC)NC(=O)[C@H](CCCNC(=N)N)NC(=O)[C@H](Cc1c[nH]cn1)NC(=O)[C@H](CCCNC(=N)N)NC(=O)[C@H](CCCCN)NC(=O)[C@H](CCCCN)NC(=O)[C@@H](N)CCSC)C(=O)N[C@@H](CCCCN)C(=O)N[C@@H](CCSC)C(=O)N[C@@H](CC(N)=O)C(=O)N1CCC[C@H]1C(=O)N[C@@H](C)C(=O)N[C@@H](CC(=O)O)C(=O)NCC(N)=O [Compound 8, H-Met-Lys-Lys-Arg-His-Arg-Met-Ile-Lys-Met-Asn-Pro-Ala-Asp-Gly-NH2] (H-MKKRHRMIKMNPADG-NH2) | 7.2±1.2
9 | CC[C@H](C)[C@H](NC(=O)[C@H](CCSC)NC(=O)[C@H](CCCNC(=N)N)NC(=O)[C@@H](NC(=O)[C@H](CCCNC(=N)N)NC(=O)[C@@H](NC(=O)[C@@H](NC(=O)[C@H](Cc1c[nH]cn1)NC(=O)CNC(=O)[C@H](CCCCN)NC(=O)CN)C(C)C)[C@@H](C)CC)[C@@H](C)O)C(=O)N[C@@H](CCC(N)=O)C(=O)N[C@@H](CCSC)C(=O)N[C@@H](CCC(=O)O)C(N)=O [Compound 9, H-Gly-Lys-Gly-His-Val-Ile-Arg-Thr-Arg-Met-Ile-Gln-Met-Glu-NH2] (H-GKGHVIRTRMIQME-NH2) | 3.9±1.6
10 | CC[C@H](C)[C@H](NC(=O)[C@H](CCCNC(=N)N)NC(=O)[C@H](C)NC(=O)[C@H](CCCCN)NC(=O)[C@H](CCCCN)NC(=O)[C@H](CCCNC(=N)N)NC(=O)[C@H](CCC(N)=O)NC(=O)[C@@H](NC(=O)[C@@H](NC(=O)[C@H](CCC(=O)O)NC(=O)[C@@H]1CCCN1C(=O)[C@H](C)NC(=O)[C@@H]1CCCN1)[C@@H](C)O)C(C)C)C(=O)N[C@@H](CCCNC(=N)N)C(=O)N[C@@H](CCCCN)C(N)=O [Compound 10, H-Pro-Ala-Pro-Glu-Thr-Val-Gln-Arg-Lys-Lys-Ala-Arg-Ile-Arg-Lys-NH2] (H-PAPETVQRKKARIRK-NH2) | 20.6±1.9
11 | CSCC[C@H](NC(=O)[C@H](Cc1ccc(O)cc1)NC(=O)[C@@H](N)CCCNC(=N)N)C(=O)N[C@H](C(=O)N[C@H](C(=O)N[C@@H](CCCCN)C(=O)N[C@@H](CCCCN)C(=O)N[C@@H](CCCNC(=N)N)C(=O)N[C@@H](Cc1ccccc1)C(=O)N[C@@H](CCCCN)C(=O)N[C@@H](CO)C(=O)N[C@@H](CO)C(=O)N[C@@H](CCC(N)=O)C(=O)N[C@@H](Cc1ccccc1)C(=O)N[C@H](C(N)=O)[C@@H](C)O)C(C)C)[C@@H](C)O [Compound 11, H-Arg-Tyr-Met-Thr-Val-Lys-Lys-Arg-Phe-Lys-Ser-Ser-Gln-Phe-Thr-NH2] (H-RYMTVKKRFKSSQFT-NH2) | 12.2±10.7
